Source: ChEMBL document CHEMBL1149256, “Discovery of 4-aryl-4H-chromenes as a new series of apoptosis inducers using a cell- and caspase-based high-throughput screening assay. 1. Structure-activity relationships of the 4-aryl group” (J Med Chem, 2004)
Activity calls are given as the source filed them. The rule behind the calls is not given here.

What was measured:
[1] = tested on: T47D; experiment: Induction of apoptosis in human T47D cells assessed as caspase activation after 24 hrs; assay type: functional, cell-based
[2] = tested on: NCI-H1299; experiment: Induction of apoptosis in human H1299 cells assessed as caspase activation after 24 hrs; assay type: functional, cell-based; settings: NCI-H1299, 24 h
[3] = tested on: DLD-1; experiment: Induction of apoptosis in human DLD1 cells assessed as caspase activation after 24 hrs; assay type: functional, cell-based; settings: DLD-1, 24 h
[4] = target: Tubulin; experiment: Displacement of [3H]colchicine from tubulin; assay type: protein-complex assay, Homo sapiens
[5] = tested on: Jurkat; experiment: Induction of caspase-mediated apoptosis in Jurkat cells at 0.1 uM after 24 hrs by nuclear fragmentation assay; assay type: functional, cell-based; settings: Homo sapiens
[6] = tested on: Jurkat; experiment: Induction of apoptosis in Jurkat cells assessed as PARP cleavage at 2.5 uM; assay type: functional, cell-based; settings: Homo sapiens, TDE = time-dependent effect
[7] = tested on: T47D; experiment: Induction of apoptosis in human T47D cells assessed as accumulation at subG1 phase at 0.1 uM after 24 hrs; assay type: functional
[8] = tested on: T47D; experiment: Induction of apoptosis in human T47D cells assessed as accumulation at G1 phase at 0.1 uM after 24 hrs; assay type: functional
[9] = tested on: T47D; experiment: Induction of apoptosis in human T47D cells assessed as accumulation at S phase at 0.1 uM after 24 hrs; assay type: functional
[10] = tested on: T47D; experiment: Induction of apoptosis in human T47D cells assessed as accumulation at G2/M phase at 0.1 uM after 24 hrs; assay type: functional
[11] = tested on: T47D; experiment: Induction of apoptosis in human T47D cells assessed as accumulation at subG1 phase at 0.1 uM after 48 hrs; assay type: functional
[12] = tested on: T47D; experiment: Induction of apoptosis in human T47D cells assessed as accumulation at G1 phase at 0.1 uM after 48 hrs; assay type: functional
[13] = tested on: T47D; experiment: Induction of apoptosis in human T47D cells assessed as accumulation at S phase at 0.1 uM after 48 hrs; assay type: functional
[14] = tested on: T47D; experiment: Induction of apoptosis in human T47D cells assessed as accumulation at G2/M phase at 0.1 uM after 48 hrs; assay type: functional
[15] = target: Tubulin; experiment: Inhibition of tubulin polymerization; assay type: protein-complex assay, Homo sapiens
[16] = tested on: T47D; experiment: Antiproliferative activity against human T47D cells after 48 hrs by MTT assay; assay type: functional
[17] = tested on: DLD-1; experiment: Antiproliferative activity against human DLD1 cells after 48 hrs by MTT assay; assay type: functional; settings: DLD-1, 48 h
[18] = tested on: T47D; experiment: Ratio of GI50 for human T47D cells to EC50 for human T47D cells; assay type: functional
[19] = tested on: DLD-1; experiment: Ratio of GI50 for human DLD1 cells to EC50 for human DLD1 cells; assay type: functional
[20] = tested on: Jurkat; experiment: Induction of apoptosis in Jurkat cells assessed as PARP cleavage at 1 uM after 30 hrs; assay type: functional, cell-based; settings: Homo sapiens

Row | SMILES | EC50 [1] | EC50 [2] | EC50 [3] | also measured
1 | CN(C)c1ccc2c(c1)OC(N)=C(C#N)C2c1cccs1 (centres undefined) | 200 nM | 300 nM | 270 nM | 
2 | CN(C)c1ccc2c(c1)OC(N)=C(C#N)C2c1cccc(C(=O)O)c1 (centres undefined) | > 10000 nM | > 10000 nM | > 10000 nM | 
3 | COc1ccc(C2C(C#N)=C(N)Oc3cc(N(C)C)ccc32)cc1OC (centres undefined) | 253 nM | 510 nM | 347 nM | 
4 | CN(C)c1ccc2c(c1)OC(N)=C(C#N)C2c1cccc(OC(F)(F)F)c1 (centres undefined) | 450 nM | 1140 nM | 457 nM | 
5 | CN(C)c1ccc2c(c1)OC(N)=C(C#N)C2c1ccncc1 (centres undefined) | 381 nM | 855 nM | 780 nM | 
6 | CN(C)c1ccc2c(c1)OC(N)=C(C#N)C2c1ccccn1 (centres undefined) | 465 nM | 1430 nM | 959 nM | 
7 | COc1cc(C2C(C#N)=C(N)Oc3cc(N(C)C)ccc32)cc(Br)c1OC (centres undefined) |  |  |  | IC50 [4]: 8000 nM
8 | CN(C)c1ccc2c(c1)OC(N)=C(C#N)C2c1cccc(O)c1 (centres undefined) | 272 nM | 959 nM | 532 nM | 
9 | COc1ccc(C2C(C#N)=C(N)Oc3cc(N(C)C)ccc32)cc1 (centres undefined) | 1600 nM | 2000 nM | 2600 nM | 
10 | Cc1cccc(C2C(C#N)=C(N)Oc3cc(N(C)C)ccc32)n1 (centres undefined) | 244 nM | 622 nM | 438 nM | 
11 | CN(C)c1ccc2c(c1)OC(N)=C(C#N)C2CCc1ccccc1 (centres undefined) | 430 nM | 1080 nM | 590 nM | 
12 | COc1ccc(C2C(C#N)=C(N)Oc3cc(N(C)C)ccc32)c(OC)c1OC (centres undefined) | 3160 nM | 3740 nM | 5090 nM | 
13 | CCCCCCCCCCCCOc1cccc(C2C(C#N)=C(N)Oc3cc(N(C)C)ccc32)c1 (centres undefined) | > 10000 nM | > 10000 nM | > 10000 nM | 
14 | COc1cc(OC)c(C2C(C#N)=C(N)Oc3cc(N(C)C)ccc32)cc1OC (centres undefined) | 1770 nM | 2290 nM | 3240 nM | 
15 | COc1cccc(C2C(C#N)=C(N)Oc3cc(N(C)C)ccc32)c1OC (centres undefined) | 1020 nM | 2130 nM | 1270 nM | 
16 | COc1cc2c(c(OC)c1OC)-c1ccc(OC)c(=O)cc1[C@@H](NC(C)=O)CC2 [COLCHICINE] |  | 34 nM |  | 
17 | CN(C)c1ccc2c(c1)OC(N)=C(C#N)C2c1cc(Br)c2c(c1)OCO2 (centres undefined) | 245 nM | 754 nM | 293 nM | GI50 [16]: 605 nM; GI50 [17]: 735 nM; Ratio GI50/EC50 [18]: 2.5; Ratio GI50/EC50 [19]: 2.5
18 | CN[C@@H]1C[C@H]2O[C@@](C)([C@@H]1OC)n1c3ccccc3c3c4c(c5c6ccccc6n2c5c31)C(=O)NC4 |  |  |  | Activity [20]: Active
19 | COc1cc(C2(C)C(C#N)=C(N)Oc3cc(N(C)C)ccc32)cc(Br)c1OC (centres undefined) | 7300 nM | 7800 nM | 10400 nM | 
20 | CN(C)c1ccc2c(c1)OC(N)=C(C#N)C2c1cc(Cl)cc(Cl)c1 (centres undefined) | 76 nM | 233 nM | 242 nM | 
21 | COc1ccccc1C1C(C#N)=C(N)Oc2cc(N(C)C)ccc21 (centres undefined) | 280 nM | 560 nM | 330 nM | 
22 | Cc1cccc(C2C(C#N)=C(N)Oc3cc(N(C)C)ccc32)c1 (centres undefined) | 134 nM | 420 nM | 168 nM | 
23 | CN(C)c1ccc2c(c1)OC(N)=C(C#N)C2c1cnc2ccccc2c1 (centres undefined) | 1820 nM | 2230 nM | 2740 nM | 

Continued, in another order:

Row | EC50 [1] | EC50 [2] | EC50 [3] | SMILES | also measured
24 | 112 nM | 514 nM | 158 nM | CN(C)c1ccc2c(c1)OC(N)=C(C#N)C2c1cccc(Cl)c1 (centres undefined) | 
25 |  |  | 83 nM | COc1cc(C2C(C#N)=C(N)Oc3cc(N(C)C)ccc32)cc2c1OCO2 (centres undefined) | Activity [5]: Active; Activity [6]: tde; Activity [7]: 4.3%; Activity [8]: 43.5%; Activity [9]: 7.6%; Activity [10]: 44%; Activity [11]: 12%; Activity [12]: 11%; Activity [13]: 18.8%; Activity [14]: 57%; IC50 [15]: 400 nM
26 | 30 nM | 163 nM | 75 nM | CC(=O)O[C@H]1C(=O)[C@@]2(C)[C@H]([C@H](OC(=O)c3ccccc3)[C@]3(O)C[C@H](OC(=O)[C@H](O)[C@@H](NC(=O)c4ccccc4)c4ccccc4)C(C)=C1C3(C)C)[C@]1(OC(C)=O)CO[C@@H]1C[C@@H]2O [PACLITAXEL] | 
27 | 18 nM | 34 nM | 64 nM | COc1cc(C2C(C#N)=C(N)Oc3cc(N(C)C)ccc32)cc(I)c1OC (centres undefined) | 
28 | 68 nM | 155 nM | 123 nM | CN(C)c1ccc2c(c1)OC(N)=C(C#N)C2c1cccnc1 (centres undefined) | 
29 | 63 nM | 215 nM | 82 nM | CN(C)c1ccc2c(c1)OC(N)=C(C#N)C2c1cccc(C#N)c1 (centres undefined) | 
30 | 25 nM | 73 nM | 129 nM | CC[C@]1(O)C[C@@H]2CN(CCc3c([nH]c4ccccc34)[C@@](C(=O)OC)(c3cc4c(cc3OC)N(C)[C@H]3[C@@](O)(C(=O)OC)[C@H](OC(C)=O)[C@]5(CC)C=CCN6CC[C@]43[C@@H]65)C2)C1 [VINBLASTINE] | 
31 | 64 nM | 337 nM | 87 nM | CN(C)c1ccc2c(c1)OC(N)=C(C#N)C2c1cccc(Br)c1 (centres undefined) | 
32 | 18 nM | 36 nM | 65 nM | COc1cc(C2C(C#N)=C(N)Oc3cc(N(C)C)ccc32)cc(Cl)c1OC (centres undefined) | 
33 | 11 nM | 27 nM | 18 nM | Cc1cncc(C2C(C#N)=C(N)Oc3cc(N(C)C)ccc32)c1 (centres undefined) | 
34 | 31 nM | 63 nM | 125 nM | COc1cc(Br)cc(C2C(C#N)=C(N)Oc3cc(N(C)C)ccc32)c1 (centres undefined) | 
35 | 41 nM | 144 nM | 64 nM | COc1cc(C2C(C#N)=C(N)Oc3cc(N(C)C)ccc32)cc(Br)c1O (centres undefined) | 
36 | 33 nM | 46 nM | 26 nM | CN(C)c1ccc2c(c1)OC(N)=C(C#N)C2c1cncc(Br)c1 (centres undefined) | 
37 | 150 nM | 240 nM | 160 nM | CN(C)c1ccc2c(c1)OC(N)=C(C#N)C2c1cc(Br)cs1 (centres undefined) | 
38 | 65 nM | 200 nM | 81 nM | COc1cccc(C2C(C#N)=C(N)Oc3cc(N(C)C)ccc32)c1 (centres undefined) | 
39 | 81 nM | 304 nM | 129 nM | CN(C)c1ccc2c(c1)OC(N)=C(C#N)C2c1cccc(F)c1 (centres undefined) | 
